Entries after “also recorded” stand apart in the source; their conditions may differ. Ends that are not written are not given here.
How the values were obtained:
cytoplasmic Ca2+ = assay: Calcium imaging of Ng-inoculated polarized epithelial cells (FluoForte, Fluo-4); type: cell-based, human; conditions: MS11Opa+ and MS11ΔOpa-inoculated polarized epithelial cells, 4 h; 2APB 10 μM, BAPTA 50 μM
Text: Ng inoculation induces Ca^2+-dependent redistribution of active NMII in polarized epithelial cells. A major upstream signaling molecule of MLCK is calmodulin that is activated by Ca^2+. To investigate if Ca^2+ is involved in Ng induced redistribution of active NMII, we determined if Ng inoculation would induce Ca^2+ flux in polarized epithelial cells. We used two Ca^2+ indicators, FluoForte (FIGS. 7A and 7B) and Fluo-4 (FIG. 11) to determine the cytoplasmic Ca^2+ level. Polarized T84 (FIGS. 7A and 7B, and FIG. 11A and FIG. 11B) and HEC-1-B (FIG. 11C and FIG. 11D) were incubated apically with MS11Opa+ or MS11ΔOpa for 4 h. The cells were then loaded with the fluorescent Ca^2+ indicator, and the cell membrane marked by the membrane dye CellMask. Cells were imaged using 3D-CFM (FIG. 7A, and FIGS. 11A and 11C). The mean fluorescence intensity (MFI) of the Ca^2+ dyes in individual cells was measured to estimate the cytoplasmic level of Ca^2+ (FIG. 7B, and FIGS. 11B and 11D). […]
Calcium imaging. […] To quantify the intracellular Ca^2+ level, the cytoplasmic region of individual cells was manually selected based on the CellMask staining in randomly acquired confocal images, and the mean fluorescent intensity (MFI) of Fluoforte and Fluo-4 in the cytoplasmic region was measured using the NIH ImageJ software.

[1] = tested on: phosphorylated myosin light chain (pMLC); assay: pMLC (active NMII) redistribution in Ng-inoculated polarized T84 cells (3D-CFM); type: cell-based, human; conditions: for accumulation of pMLC at Ng adherent sites / apical:lateral FIR of pMLC: polarized T84, Ng 6 h; for junction:non-junction FIR of pMLC: polarized T84, Ng 6 h (Y27632: MS11ΔOpa); for junction:non-junction FIR of pMLC / apical:lateral FIR of pMLC: ML-7 10 μM, PIK 100 μM, Y27632 10 μM, 2APB 10 μM, BAPTA 50 μM
Method: Ng induce and Opa suppresses the redistribution of active non-muscle myosin II in polarized and endocervical epithelial cells. […] We examined the cellular distribution of active NMII after 6-h incubation with Ng, using antibody specific for phosphorylated myosin light chain (pMLC) and 3D-CFM. In uninfected polarized T84 (FIGS. 5A and 5C) and HEC-1-B cells (FIG. 10), pMLC was primarily localized at the apical junction. The polarized distribution of pMLC at the apical surface was quantified by the FIR of pMLC at the apical to the lateral (Apical:Lateral) membrane areas in individual cells using CFM images scanning across the apical and basolateral surfaces (FIGS. 5A and 5B). The polarized distribution pMLC at the apical junction was quantified by the FIR of pMLC at the junction to non-junction (Junction:Non-junction) areas of the apical region using CFM images scanning through the apical junction (FIGS. 5C and 5D). The apical inoculation of MS11Opa+ and MS11ΔOpa caused significant increases in apical:lateral FIR in both polarized T84 (FIGS. 5A and 5B) and HEC-1-B cells (FIG. 10), compared to the no Ng control. There were also significant increases in the junction:non-junction FIR in infected polarized T84 cells, compared to non-infected cells (FIGS. 5C and 5D). […] We further noticed that NMII at the apical surface appeared to accumulate at Ng adherent sites (FIG. 5A, middle panels, arrows).
(§1) Immunofluorescence analysis of polarized epithelial cells. Cells were pretreated with or without NMII kinase inhibitors, Y27632 (10 μM, EMD Millipore), ML-7 (10 μM, EMD Millipore) and PIK (100 μM) or Ca2+ inhibitors, 2APB (10 μM, EMD Millipore) and BAPTA (50 μM, EMD Millipore) for 1 h, and incubated with Ng in the presence or absence of the inhibitors for 6 h. Cell were washed and fixed with 4% paraformaldehyde, permeabilized with 1% Triton X100, and stained with anti-E-cadherin (BD Bioscience), anti-pMLC (Cell Signaling Technology, Carlsbad, Calif.), anti-Ng antibodies, and DAPI for nuclei. Cells were analyzed by CFM. Images were acquired as Z-series of 0.37 μm slices, and 3D composites obtained. Epithelial exfoliation will be quantified using xz images as described for the tissue explants. The distribution of E-cadherin and pMLC was quantitatively analyzed by measuring the FIR at the apical junctional to the cytoplasmic area (from xy images) or at the apical to lateral surface area (from xz images) in individual cells.

polarized T84 cells [2] = assay: Ng-induced exfoliation of polarized T84 monolayers (3D-CFM); type: cell-based, human; conditions: 6 h, inhibitor 1 h before and during, ML-7 10 μM, PIK 100 μM, Y27632 10 μM; for exfoliation of MS11ΔOpa-infected epithelial cells from T84 monolayers: 2APB 10 μM
Text: (§2) To quantify epithelial exfoliation, the number of Ng associated cells localized on the top of the epithelial monolayer (exfoliated) and the total number of Ng associated epithelial cells was counted by visual inspection in each randomly acquired image, to determine the percentage of exfoliated cells. To estimate the level of Ng penetration into the subepithelium, the number of non-exfoliated epithelial cells (in clearly visible epithelial monolayers) with basal Ng staining and the total number of Ng associated epithelial cells were visually counted to calculate the percentage of infected epithelial cells with Ng penetration into the basolateral side. To evaluate the disruption of the apical junction, the number of Ng associated epithelial cells that lost continuously apical staining of the junctional protein ZO1 and the total number of Ng associated epithelial cells were visually counted to calculate the percentage of Ng associated epithelial cells with apical junction disassembly. To quantify the redistribution of pMLC, the fluorescence intensity ratios (FIR) of pMLC staining at the apical to lateral in individual epithelial cells were determined using average FI as previously described.
as §1

[3] = tested on: Neisseria gonorrhoeae MS11; assay: Ng adherence, invasion, and transmigration assays on polarized epithelial cells; type: cell-based; conditions: for transmigration of MS11ΔOpa across the polarized T84 monolayer / Ng invasion into polarized T84 cells (gentamicin resistance): 6 h; for transmigration of MS11ΔOpa across the polarized T84 monolayer: ML-7 10 μM, PIK 100 μM, 2APB 10 μM, Y27632 10 μM; for Ng adherence to polarized T84 cells / Ng invasion into polarized T84 cells (gentamicin resistance): MS11ΔOpa, with inhibitors; for Ng adherence to polarized T84 cells: 3 h
Method: Ng adherence, invasion, and transmigration assays. The assays were performed as previously described. Briefly, polarized epithelial cells that were pretreated with or without the inhibitors for 1 h were incubated apically with Ng at 37° C. for 3 h for adherence and 6 h for invasion and transmigration assays with or without the inhibitors. Ng in the basolateral media were cultured and counted as transmigrated bacteria. Cells were washed and lysed to count adherent Ng. Cells were treated with gentamicin, washed, and lysed to count bacteria that were resistant to gentamicin treatment as invaded Ng.

polarized T84 cells [4] = assay: Exfoliation of polarized T84 cells treated with inhibitors alone, without Ng; type: cell-based, human; conditions: no Ng inoculation, 6 h
Method: Polarized T84 cells were treated with inhibitors for 6 h, fixed, stained to visualize the cell nuclei, and imaged by 3D-CFM. The percentage of cell moving above the epithelial monolayer (dash lines) was determined from three independent experiments. Scale bar, 5 μm. *p≤0.05.
as §1

Neisseria gonorrhoeae = assay: Ng growth; type: cell-based; conditions: FIG. 13
[5] = tested on: phosphorylated myosin light chain (pMLC); assay: pMLC redistribution in Ng-inoculated human endocervical tissue explants; type: cell-based; conditions: MS11ΔOpa-inoculated endocervical tissue explants, 24 h
Method: To explore the possibility of that Ng induced NMII redistribution occurs in vivo, we incubated human endocervical tissue explants with MS11ΔOpa for 24 h. Cryo-sections of the endocervical tissue were stained for pMLC, Ng and nuclei. In addition to its apical junction localization, pMLC was concentrated at the basal surface of the endocervical epithelial cells contacting with the basal membrane (FIG. 6A, upper panels). When incubated with MS11ΔOpa, there was a redistribution of pMLC from the basal to apical surface, resulting in a significant higher apical:lateral FIR in Ng inoculated tissue explants than that in no Ng control (FIG. 6), similar to what we observed in polarized T84 (FIGS. 5A and 5B) and HEC-1-B cells (FIG. 10). Furthermore, pMLC at the apical surface of the endocervical epithelial cells also concentrated at Ng adherent sites (FIG. 6A, second row, white arrows), but not at the membrane of cells neighboring exfoliating cells (FIG. 6A, second row, orange arrows). These observations confirm that Ng increase the relative amount of activated NMII at the apical surface of the endocervical epithelial cells in human tissue explants. […]
(§3) Immunofluorescence analysis of human endocervical tissue explants. […] The tissue was fixed, embedded in gelatin, cryopreserved, sectioned crossing the apical and basolateral surfaces of the epithelium, stained for ZO1 (BD Bioscience), pMLC (Cell Signaling Technology, Beverly, Mass.), and Ng (51) by specific antibodies, and nuclei by DAPI (Life Technologies, Carlsbad, Calif.), and analyzed using CFM (Zeiss LSM 710, Carl Zeiss Microscopy LLC, Oberkochen, Germany). […]
as §2, with “To quantify the redistribution of pMLC, the fluorescence intensity ratios (FIR) of pMLC staining at the apical to lateral in individual epithelial cells were determined using average FI as previously described.” left out

[6] = tested on: Neisseria gonorrhoeae MS11ΔOpa; assay: Ng subepithelial penetration in human endocervical tissue explants (3D-CFM); type: cell-based
Method: (§4) Human endocervical tissue explants. The tissue explants were cultured as previously described. Endocervical tissues were obtained from patients undergoing voluntary hysterectomies and received within 24 h post-surgery. Samples were cut into ˜2.5 cm (L)×0.6 cm (W)×0.3 cm (H) pieces, incubated in CMRL-1066 (GIBCO, Gaithersburg, Md.) plus antibiotics for 24 h, and then switched to antibiotic-free media for 24 h.
Immunofluorescence analysis of human endocervical tissue explants. Individual endocervical tissue pieces were incubated with Ng at a MOI of ˜10 (based on the average number of endocervical epithelial cells in endocervical tissue pieces) in the presence or absence of the MLCK inhibitor ML-7 (10 μM, EMD Millipore) and PIK (100 μM) (54) on transwells for 24 h. Unassociated Ng were removed by extensive washes at 6 and 12 h. The tissue was fixed, embedded in gelatin, cryopreserved, sectioned crossing the apical and basolateral surfaces of the epithelium, stained for ZO1 (BD Bioscience), pMLC (Cell Signaling Technology, Beverly, Mass.), and Ng (51) by specific antibodies, and nuclei by DAPI (Life Technologies, Carlsbad, Calif.), and analyzed using CFM (Zeiss LSM 710, Carl Zeiss Microscopy LLC, Oberkochen, Germany). […]
as §2, with “To evaluate the disruption of the apical junction, the number of Ng associated epithelial cells that lost continuously apical staining of the junctional protein ZO1 and the total number of Ng associated epithelial cells were visually counted to calculate the percentage of Ng associated epithelial cells with apical junction disassembly.” left out

[7] = tested on: human endocervical tissue explants; assay: Ng-induced epithelial exfoliation of human endocervical tissue explants (3D-CFM); type: cell-based; conditions: MS11ΔOpa, 24 h; ML-7 10 μM, PIK 100 μM
Method: as §4, §3
To quantify epithelial exfoliation, the number of Ng associated cells localized on the top of the epithelial monolayer (exfoliated) and the total number of Ng associated epithelial cells was counted by visual inspection in each randomly acquired image, to determine the percentage of exfoliated cells. […] To quantify the redistribution of pMLC, the fluorescence intensity ratios (FIR) of pMLC staining at the apical to lateral in individual epithelial cells were determined using average FI as previously described.

Row | Compound | MFI of the Ca2+ indicators (cytoplasmic Ca2+ level) (cytoplasmic Ca2+) | accumulation of pMLC at Ng adherent sites [1] | junction:non-junction FIR of pMLC [1] | apical:lateral FIR of pMLC [1] | exfoliation of MS11Opa+-infected epithelial cells from T84 monolayers (polarized T84 cells [2]; MS11Opa+) | exfoliation of MS11ΔOpa-infected epithelial cells from T84 monolayers (polarized T84 cells [2]) | transmigration of MS11ΔOpa across the polarized T84 monolayer [3] | Ng adherence to polarized T84 cells [3] | Ng invasion into polarized T84 cells (gentamicin resistance) [3] | epithelial exfoliation with inhibitors alone (polarized T84 cells [4]) | Ng growth (Neisseria gonorrhoeae) | pMLC accumulation at Ng adherent sites [5] | apical:lateral FIR of pMLC ([5]; ML-7 10 μM, PIK 100 μM) | Ng trans-migration across polarized human epithelial cells ([3]; FIG. 12C) | Ng penetration into human endocervical epithelia ([6]; FIG. 12A-B) | percentage of epithelial cells with basally associated Ng ([6]; MS11ΔOpa, 24 h, ML-7 10 μM or PIK 100 μM, 27% without inhibitor) | epithelial exfoliation of human endocervical tissue explants [7]
1 | O=C(O)CN(CC(=O)O)c1ccccc1OCCOc1ccccc1N(CC(=O)O)CC(=O)O [BAPTA] | back to the basal level | decreased | decreased | decreased | – | – | – | – | – | – | – | – | – | – | – | – | –
2 | C[C@@H](N)[C@H]1CC[C@H](C(=O)Nc2ccncc2)CC1 [Y27632] | – | – | further increased | – | did not significantly change the percentage of epithelial exfoliation | did not significantly change the percentage of epithelial exfoliation | had no impact | had no impact | had no impact | – | – | – | – | – | – | – | –
3 | Cc1ccc2c(c1)C(=O)C1(O)CCN(c3ccccc3)C1=N2 (centres unmarked) [blebbistatin] | – | – | – | – | – | – | – | – | – | increased epithelial exfoliation | – | – | – | – | – | – | –
4 | PIK: peptide MLCK inhibitor comprising SEQ ID NO:1 (lys-arg-arg-tyr-lys-tyr-lys-lys-arg) with at least one D-amino acid; from U.S. Pat. No. 7,585,844 (KRRYKYKKR; also: at least one D-amino acid, places not given here) | – | significantly reduced | significantly reduced | significantly reduced | – | reduced the exfoliation | significantly reduced the transmigration | none of these inhibitors had any significant effect | none of these inhibitors had any significant effect | did not affect epithelial exfoliation | suppresses Ng growth | significantly reduced | significantly reduced | inhibits | inhibits Ng penetration; also recorded: robust inhibition | 7.1% | decreased the epithelial exfoliation of human endocervical tissue explants to the basal level
